These results are taken from ChEMBL document CHEMBL1150252, “Heteroaromatic ester inhibitors of hepatitis A virus 3C proteinase: Evaluation of mode of action” (Bioorg Med Chem, 2008).

pIC50: −log10 of the molar value. Several values for one entry are separate records, joined by “and”; a condition that tells them apart may be missing. Equal entries are not always repeated.

In series [1] the test system is Hepatovirus A. The experiment in a line: Inhibition of hepatitis A virus 3C proteinase at 10 uM by microplate assay.
The subject of series [2] is Hepatovirus A. Briefly: Inhibition of hepatitis A virus 3C proteinase at 1 uM by microplate assay.
Series [3] deals with Hepatovirus A. Briefly: Inhibition of hepatitis A virus 3C proteinase at 0.25 uM by microplate assay.
Series [4] can be described thus: Inhibition of hepatitis A virus 3C proteinase by microplate assay. Also noted: species or system Hepatovirus A.
The target of series [5] is Replicase polyprotein 1a (Severe acute respiratory syndrome-related coronavirus, UniProt P0C6U8). Briefly: Inhibition of SARS coronavirus 3CL proteinase.
Series [6] has as its system Hepatovirus A. Briefly: Activity of hepatitis A virus 3C proteinase assessed as compound hydrolysis by HPLC.
For series [7], the system named is Hepatovirus A. Briefly: Ratio of Kcat to Km of hepatitis A virus 3C proteinase.
Series [8] has as its system O=C(Oc1cncc(Br)c1)c1ccco1. Briefly: Activity of SARS coronavirus 3CL proteinase assessed as compound hydrolysis by HPLC. Particulars: Severe acute respiratory syndrome-related coronavirus.
For series [9], the system named is O=C(Oc1cncc(Br)c1)c1ccco1. The experiment in a line: Ratio of Kcat to Km of SARS coronavirus 3CL proteinase. Particulars: Severe acute respiratory syndrome-related coronavirus.

Usually inhibition stands for the relative decrease from the control value, in per cent. High values mean a strong effect, low ones a weak effect. By pIC50 is commonly meant the IC50 on a negative log10 scale, so that one unit is a factor of ten. Read a low pIC50 as a large IC50. As usually defined, the Km is the concentration of substrate that gives half-maximal velocity.

For `O=C(Oc1cncc(Cl)c1)c1ccc(Cl)cc1O`, the inhibition is more than 90% in [1], 59% in series [2] and 10% in [3].
For `O=C(Oc1cncc(Cl)c1)c1c[nH]cn1`, in that order: 33%, 47% and 34%.
For the compound `O=C(Oc1cncc(Cl)c1)c1ccc2[nH]ccc2c1`, the inhibition in [1] came out at 87%; in series [2], 60%; in [3], 22%.
For `CN(C)c1ccc(C(=O)Oc2cncc(Cl)c2)cc1`, in that order: more than 90%, more than 90% and 20%.
`O=C(Oc1cncc(Cl)c1)c1cc([N+](=O)[O-])[nH]n1` gave a pIC50 in [4] of 6.60. Moreover, the values for the inhibition in [1], in series [2] and in series [3] were 54%, 69% and 53%, respectively.
As for `O=C(Oc1cncc(Cl)c1)c1cccs1`, the pIC50 in [5] is 6.30; in series [4], 6.33. Further, the inhibition in series [1] was 93% and > 90%; in series [2], more than 90%; in series [3], 50%.
Turning to `O=C(Oc1cncc(Cl)c1)c1ccco1`, the pIC50 in series [4] was 6.47. For the same compound, the inhibition is more than 90% in series [1], more than 90% in [2] and 49% in series [3]. The Km in series [6] was found to be 0.24 µM. In [6], the kcat was 110 ×10⁻⁵ /s. The kcat/Km in series [7] is 4.6 ×10³ /M/s.
With `NS(=O)(=O)c1ccc(C(=O)Oc2cncc(Cl)c2)cc1`, the figures for the inhibition in series [1], in series [2] and in series [3] were 64%, 57% and less than 10%, respectively.
Turning to `O=C(Oc1cncc(Cl)c1)c1ccc(-c2ccc(Cl)cc2)o1`, the figures for the inhibition in [1] and in series [3] were more than 90% and 36%, respectively.
In the case of `Cc1cccc(C(=O)Oc2cncc(Cl)c2)c1`, the inhibition in [1] was 63%; in [2] it was 32%.
For `O=C(Oc1cncc(Cl)c1)c1ccc(-c2ccccc2)cc1`, in that order: 39% and 23%.
Consider `COc1ccccc1C(=O)Oc1cncc(Cl)c1`, for which the inhibition in series [1] is 85%; in [2] it was 57%; in series [3], less than 10%.
The like results for `O=C(Oc1cncc(Cl)c1)c1ccc2ncsc2c1` were, in that order, 74%, 54% and 27%.
`O=C(Oc1cncc(Cl)c1)c1ccc[nH]1`: the inhibition in [1] is 92%; in series [2] it was less than 10%; in series [3], less than 10%.
In the case of `O=C(Oc1cncc(Cl)c1)c1cc2ccccc2o1`, the inhibition is more than 90% in [1], more than 90% in series [2] and less than 10% in series [3].
`O=C(Oc1cncc(Cl)c1)c1cscn1`: the inhibition is more than 90% in series [1], 85% in series [2] and 37% in series [3].
For `O=C(Oc1cncc(Cl)c1)c1ccccc1Cl`, in that order: more than 90%, 67% and 23%.
For the compound `O=C(Oc1cncc(Cl)c1)C1CCCCC1`, the inhibition in series [1] came to 81%; in series [2], 32%.
Turning to `O=C(Oc1cncc(Br)c1)c1ccco1`, the pIC50 in series [4] is 7.28. This compound came in with an inhibition in series [2] of more than 90%. In series [3], this compound returned an inhibition of 87%. Besides, in series [6], the Km stood at 0.12 µM and the kcat was 119 ×10⁻⁵ /s. Besides, in series [7], the kcat/Km is 10 ×10³ /M/s.
Consider `O=C(Oc1cncc(Cl)c1)c1ccccc1[N+](=O)[O-]`, for which the inhibition in series [1] is more than 90%; in series [2] it was 24%.
`Cc1ccc(C(=O)Oc2cncc(Cl)c2)s1`: the inhibition is more than 90% in [1] and 24% in [3].
In the case of `O=C(Oc1cncc(Cl)c1)c1ccc(-c2ccccc2C(F)(F)F)o1`, the inhibition in [1] was more than 90%; in series [3], less than 10%.
As to `Cc1ncccc1OC(=O)c1cccs1`, the inhibition in [1] and in series [2] was less than 10% throughout.
With `CNc1ccc(C(=O)Oc2cncc(Cl)c2)cc1`, the inhibition was 82% in series [1] and less than 10% in [2].
As to `O=C(Oc1cncc(Cl)c1)c1ccncc1`, the inhibition in [1] was determined as 37%; in series [2], 34%.
As for `Cc1onc(-c2ccccc2)c1C(=O)Oc1cncc(Cl)c1`, the inhibition in series [1] and in [3] was less than 10% each time.
For the compound `O=C(Oc1cncc(Cl)c1)c1ccccc1`, the inhibition in series [1] was more than 90%; in series [2] it was more than 90%; in series [3] it was less than 10%.
With `O=C(Oc1cncc(Cl)c1)c1ccc2c(c1)OCO2`, the inhibition in series [1] is more than 90%; in series [2] it was 11%.
As for `O=C(Oc1cncc(Cl)c1)c1ccc(Br)o1`, in series [4], the negative logarithm of the IC50 (pIC50) was 5.92. Also, the inhibition in [1] is more than 90%; in series [3], 54%.
As to `COc1cccc(C(=O)Oc2cncc(Cl)c2)c1`, the inhibition in [1] was more than 90%; in [2], 50%.
For `O=C(Oc1cccnc1)c1cccs1`, in that order: 83% and 21%.
As for `Nc1ccc(C(=O)Oc2cncc(Cl)c2)cc1`, the inhibition in series [1] was more than 90%; in series [2], 26%.
For `O=C(Oc1cncc(Cl)c1)c1cc2ccccc2s1`, in that order: more than 90% and 47%.
In the case of “Replicase polyprotein 1a (Severe acute respiratory syndrome-related coronavirus) (from UniProt P0C6U8)”, in series [8], the Km was 0.026 µM and the kcat stood at 17 ×10⁻⁵ /s. In addition, the kcat/Km in series [9] worked out at 7 ×10³ /M/s.
In the case of `O=C(Oc1cncc(Cl)c1)c1ccc2[nH]cnc2c1`, the inhibition in series [1] worked out at 82%; in [2] it was 75%; in series [3], 32%.
Compound `O=C(/C=C/c1ccco1)Oc1cncc(Cl)c1` had a pIC50 in series [4] of 6.85. Moreover, the values for the inhibition in [1], in series [2] and in series [3] were 83%, more than 90% and 43%, respectively. In addition, the Km in series [6] is 0.18 µM. Further, the kcat in [6] is 25 ×10⁻⁵ /s. Besides, the kcat/Km in series [7] was 1.4 ×10³ /M/s.
Regarding `O=C(Oc1ccncc1)c1cccs1`, the figures for the inhibition in [1] and in series [2] were less than 10% and 10%, respectively.
